Results published in ChEMBL document CHEMBL1629651, “A novel insertion mutation in Streptomyces coelicolor ribosomal S12 protein results in paromomycin resistance and antibiotic overproduction” (2009).
In brackets after ≈: the same amount, converted by molar mass. Activity calls are given as the source filed them. The calls are words filed in the database; no cut-off is given here.

Assays:
Streptomyces coelicolor [1] = test: Antimicrobial activity against paromomycin-resistant Streptomyces coelicolor 92G harboring rpsL gene with inserted glycine at position 92 after 48 hrs; format: functional
Streptomyces coelicolor [2] = test: Antimicrobial activity against paromomycin-resistant Streptomyces coelicolor KO-347 harboring rpsl P91S mutant gene after 48 hrs; format: functional
Streptomyces coelicolor [3] = test: Antimicrobial activity against Streptomyces coelicolor 1147 after 48 hrs; format: functional
Streptomyces coelicolor [4] = test: Antimicrobial activity against paromomycin-resistant Streptomyces coelicolor SP1 harboring rpsL A262G and C271T mutant gene after 48 hrs; format: functional
Streptomyces coelicolor [5] = test: Antimicrobial activity against streptomycin-resistant Streptomyces coelicolor KO-178 harboring rpsL K88E mutant gene after 48 hrs; format: functional
Streptomyces coelicolor [6] = test: Antimicrobial activity against paromomycin-resistant Streptomyces coelicolor SP2 harboring rpsL K88E mutant gene and inserted glycine at position 92 of the gene after 48 hrs; format: functional
[7] = target: T1, Small ribosomal subunit protein uS12 (Streptomyces coelicolor (strain ATCC BAA-471 / A3(2) / M145)) (UniProt P0A4A3); test: Binding affinity to Streptomyces coelicolor 1147 30S ribosomal protein S12 assessed as inhibition of protein synthesis at 0.2 ug/ml by fluorescence assay
T1 sequence (whole entry): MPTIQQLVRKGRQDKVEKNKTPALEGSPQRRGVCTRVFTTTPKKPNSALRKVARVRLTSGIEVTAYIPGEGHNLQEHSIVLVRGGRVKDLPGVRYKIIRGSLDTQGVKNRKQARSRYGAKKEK

Streptomyces coelicolor [8] = test: Binding affinity to Streptomyces coelicolor KO-178 30S ribosomal protein S12 K88E mutant assessed as inhibition of protein synthesis at 0.2 ug/ml by fluorescence assay
Streptomyces coelicolor [9] = test: Binding affinity to Streptomyces coelicolor KO-347 30S ribosomal ptotein S12 GI92 mutant assessed as inhibition of protein synthesis at 0.2 ug/ml by fluorescence assay
[10] = Streptomyces coelicolor, 1147, 48 h

| Compound | MIC (Streptomyces coelicolor [1]) | MIC (Streptomyces coelicolor [2]) | MIC (Streptomyces coelicolor [3]) | MIC (Streptomyces coelicolor [4]) | MIC (Streptomyces coelicolor [5]) | MIC (Streptomyces coelicolor [6]) | MIC (Streptomyces coelicolor [2]; KO-347, 48 h) | MIC (Streptomyces coelicolor [3]; [10]) | MIC (Streptomyces coelicolor [4]; SP1, 48 h) | MIC (Streptomyces coelicolor [5]; KO-178, 48 h) | MIC (Streptomyces coelicolor [6]; SP2, 48 h) | inhibition [7] | inhibition (Streptomyces coelicolor [8]) | inhibition (Streptomyces coelicolor [9]) |
| --- | --- | --- | --- | --- | --- | --- | --- | --- | --- | --- | --- | --- | --- | --- |
| GENTAMICIN | 0.5 µg/mL | 0.5 µg/mL | 0.1 µg/mL | 0.5 µg/mL | 0.1 µg/mL | 0.5 µg/mL | – | – | – | – | – | – | – | – |
| NC[C@@H]1O[C@H](O[C@H]2[C@@H](O)[C@H](O[C@@H]3[C@@H](O)[C@H](N)C[C@H](N)[C@H]3O[C@H]3O[C@H](CN)[C@@H](O)[C@H](O)[C@H]3N)O[C@@H]2CO)[C@H](N)[C@@H](O)[C@@H]1O [FRAMYCETIN] | 0.5 µg/mL (≈ 0.813 µM) | – | – | – | – | – | 0.5 µg/mL (≈ 0.813 µM) | 0.3 µg/mL (≈ 0.488 µM) | 0.2 µg/mL (≈ 0.325 µM) | 0.8 µg/mL (≈ 1.3 µM) | 0.2 µg/mL (≈ 0.325 µM) | – | – | – |
| NC[C@@H]1O[C@H](O[C@H]2[C@@H](O)[C@H](O[C@@H]3[C@@H](O)[C@H](N)C[C@H](N)[C@H]3O[C@H]3O[C@H](CO)[C@@H](O)[C@H](O)[C@H]3N)O[C@@H]2CO)[C@H](N)[C@@H](O)[C@@H]1O [PAROMOMYCIN] | 2 µg/mL (≈ 3.25 µM) | – | – | – | – | – | 0.8 µg/mL (≈ 1.3 µM) | 0.1 µg/mL (≈ 0.162 µM) | 2 µg/mL (≈ 3.25 µM) | 0.3 µg/mL (≈ 0.487 µM) | 3 µg/mL (≈ 4.87 µM) | 80% | > 80% | inactive |
| NC[C@H]1O[C@H](O[C@H]2[C@H](O)[C@@H](O[C@H]3O[C@H](CO)[C@@H](O)[C@H](N)[C@H]3O)[C@H](N)C[C@@H]2N)[C@H](O)[C@@H](O)[C@@H]1O [KANAMYCIN] | 1 µg/mL (≈ 2.06 µM) | – | – | – | – | – | 0.5 µg/mL (≈ 1.03 µM) | 0.8 µg/mL (≈ 1.65 µM) | 0.5 µg/mL (≈ 1.03 µM) | 0.8 µg/mL (≈ 1.65 µM) | 0.5 µg/mL (≈ 1.03 µM) | – | – | – |
| CN(C)[C@@H]1C(O)=C(C(N)=O)C(=O)[C@@]2(O)C(O)=C3C(=O)c4c(O)cccc4[C@@](C)(O)[C@H]3C[C@@H]12 [TETRACYCLINE] | 10 µg/mL (≈ 22.5 µM) | – | – | – | – | – | 5 µg/mL (≈ 11.3 µM) | 10 µg/mL (≈ 22.5 µM) | 3 µg/mL (≈ 6.75 µM) | 10 µg/mL (≈ 22.5 µM) | 3 µg/mL (≈ 6.75 µM) | – | – | – |
| CN[C@@H]1[C@H](O[C@H]2[C@H](O[C@H]3[C@H](O)[C@@H](O)[C@H](N=C(N)N)[C@@H](O)[C@@H]3N=C(N)N)O[C@@H](C)[C@]2(O)C=O)O[C@@H](CO)[C@H](O)[C@H]1O [STREPTOMYCIN] | 20 µg/mL (≈ 34.4 µM) | – | – | – | – | – | 20 µg/mL (≈ 34.4 µM) | 1 µg/mL (≈ 1.72 µM) | 200 µg/mL (≈ 344 µM) | 100 µg/mL (≈ 172 µM) | > 200 µg/mL | – | – | – |
| CCC[C@@H]1C[C@@H](C(=O)N[C@@H]([C@H]2O[C@H](SC)[C@H](O)[C@@H](O)[C@H]2O)[C@@H](C)O)N(C)C1 [LINCOMYCIN] | 20 µg/mL (≈ 49.2 µM) | – | – | – | – | – | 50 µg/mL (≈ 123 µM) | 50 µg/mL (≈ 123 µM) | 40 µg/mL (≈ 98.4 µM) | 40 µg/mL (≈ 98.4 µM) | 10 µg/mL (≈ 24.6 µM) | – | – | – |
| CC(=O)O[C@H]1C[C@@]2(C)[C@@H](C[C@@H](O)[C@H]3[C@@]4(C)CC[C@@H](O)[C@@H](C)[C@@H]4CC[C@@]32C)/C1=C(\CCC=C(C)C)C(=O)O [FUSIDIC ACID] | 50 µg/mL (≈ 96.8 µM) | – | – | – | – | – | 50 µg/mL (≈ 96.8 µM) | 50 µg/mL (≈ 96.8 µM) | 20 µg/mL (≈ 38.7 µM) | 50 µg/mL (≈ 96.8 µM) | 20 µg/mL (≈ 38.7 µM) | – | – | – |
| CN[C@@H]1[C@@H](O)[C@@H](O[C@@H]2[C@@H](O)[C@H](O[C@H]3O[C@H]([C@@H](C)O)[C@@H](O)[C@H](O)[C@H]3N)[C@@H](N)C[C@H]2N)OC[C@]1(C)O [GENETICIN] | 1 µg/mL (≈ 2.01 µM) | – | – | – | – | – | 0.3 µg/mL (≈ 0.604 µM) | 0.3 µg/mL (≈ 0.604 µM) | 0.5 µg/mL (≈ 1.01 µM) | 0.3 µg/mL (≈ 0.604 µM) | 0.5 µg/mL (≈ 1.01 µM) | – | – | – |
